Assay results from patent publication US20100233249A1, “CONTRACEPTIVE METHODS AND COMPOSITIONS RELATED TO PROTEASOMAL INTERFERENCE” (priority 2003, published 2010).
Entries after “also recorded” stand apart in the source; their conditions may differ. Where a SMILES comes first, the peptide text is derived from it. The star is where a group is joined. Cbz = O=C(OCc1ccccc1)*

What was measured:
[1] = system: zona-enclosed oocytes / boar spermatozoa; experiment: Porcine in vitro fertilization of zona-enclosed (zona-intact) oocytes with inhibitor or antibody in the fertilization medium; type: cell-based; conditions: for Monospermic (number of oocytes) / Not fertilized (%) / Not fertilized (number of oocytes) / Polyspermic (number of oocytes) / Monospermic (%) / Polyspermic (%): 10 uM in culture medium at the time of insemination, 20 h p.i.; for penetration of ZP: 100 uM concentration; for fertilization of zona-enclosed (zona-intact) oocytes: agent in fertilization medium during porcine IVF
[2] = system: zona-free oocytes / boar spermatozoa; experiment: Porcine in vitro fertilization of zona-free oocytes; type: cell-based
Protocol: IVF was performed using zona-enclosed and zona-free (ZF or ZP−) oocytes in the presence or absence of MG132 and antibody MECL-1. Removal of the zona pellucida was accomplished by a brief (30 sec) exposure of oocytes to 0.5% pronase (Sigma, St. Louis, Mo.). Oocytes were washed extensively and ZF oocytes were allowed to recover from enzymatic treatment for 1 h prior to insemination. For IVF, ZF oocytes were co-incubated with 1×10^5 sperm/ml while zona-enclosed/zona-intact (ZI or ZP+) oocytes were treated as described above. Oocytes were fixed 12 h post insemination (p.i.) in 25% acetic acid/ethanol and stained with 1% orcein to determine the incidence of fertilization. In some experiments, oocytes were evaluated by immunofluorescence microscopy, detecting the presence of pronuclei and sperm tails in the zygotic cytoplasm.
To ascertain that the fertilizing capability of boar spermatozoa was not diminished by some non-specific effect of proteasomal inhibitors on the sperm motility or sperm ability to fuse with the oocyte plasma membrane, porcine oocytes were stripped of ZP and fertilized with acrosome-intact spermatozoa in the presence or absence of MG132 (FIG. 5 A-H). […] MG132 had no effect on the fertilization of zona-intact oocytes when either oocytes or spermatozoa were pre-incubated with it and used for insemination after extensive washing.

[3] = system: boar spermatozoa bound to the zona pellucida; experiment: Sperm-zona binding and sperm acrosomal status (DAPI, c-Yes immunofluorescence); type: cell-based, porcine
Protocol: To evaluate sperm-zona binding and sperm acrosomal status, zona-enclosed oocytes were fixed and the tyrosine kinase c-Yes, known to be present in the subacrosomal and outer acrosomal layer of perinuclear theca in spermatozoa with an intact acrosome (Leclerc and Goupil, 2002) was evaluated by immunofluorescence. The number of spermatozoa bound to the zona pellucida was determined after staining with DAPI. Five eggs per group were counterstained with an antibody against the acrosomal tyrosine kinase c-Yes (see Immunofluorescence) and DAPI and photographed at 60× magnification. ZP-bound acrosome-reacted and acrosome intact spermatozoa were counted and the values were expressed as a percent (%) of acrosome intact sperm/egg. Treatment results were compared by χ2 test and by general linear model procedures of SAS 8.2.
It was first observed that proteasomal inhibitors lactacystin and MG132 prevent fertilization in the course of studies aimed at confirming the proteasomal route of degradation of the paternal, sperm mitochondria inside the porcine zygote (Sutovsky et al., 2003). This study was followed up on by experiments designed to determine at which step of fertilization the inhibitors exert the block. […] The experiment was repeated four times with consistent results. […] To rule out that MG132 affects sperm viability, sperm-zona binding or acrosomal exocytosis, oocytes fertilized in the presence of 10 μM MG132 were fixed with their zona pellucida intact at 20 h p.i. Sperm heads bound to ZP were detected with DAPI and intact acrosomes were detected by antibodies against tyrosine kinase c-Yes, known to reside in the sub-acrosomal and outer acrosomal layer of perinuclear theca of acrosome-intact spermatozoa (FIG. 1 A-D). Since the spermatozoa in this experiment were pre-labeled with MitoTracker CMTM Ros, the sperm mitochondrial sheaths were rendered detectable inside the fertilized oocytes. […] However, there was no significant difference in the number of sperm bound per egg (99.3 with MG132 vs. 93.3 in control) or in the percentage of acrosome-intact, zona-bound sperm (2.01% with MG132 vs. 2.14% in control).

[4] = system: ubiquitin-immuno-reactive ZP proteins; experiment: Western blotting / Coomassie staining of ubiquitin-immuno-reactive ZP proteins after IVF; type: cell-based, porcine; conditions: MG132 in fertilization medium; 6 h p.i.
Protocol: SDS-PAGE and Western blotting were carried out as generally described in Sambrook et al. (2001). Oocytes and zygotes were removed from culture at given time points, washed repeatedly in a protein-free TALP HEPES and 350 zygotes per group were boiled for 5 min in […] of loading buffer containing Tris (50 mM), β-mercaptoethanol (5%), glycerol (10%), SDS (2%) and PMSF (100 mM). Boar sperm proteins were extracted by grinding in extraction buffer (50 mM Tris, 20 mM imidazole, 1 mM EDTA, 5 mM benzamidine HCl, 5 μg/ml leupeptine, 1 μg/ml pepstatin A, 100 mM PMSF and 0.1% SDS), centrifuged at 17000×g for 30 min. β-mercaptoethanol, glycerol, SDS were added to the supernatants, achieving the final concentrations as that of the loading buffer. Human spermatozoa were boiled with loading buffer, followed by centrifugation at 25000×g for 30 min to remove the DNA pellet. […] After incubating overnight with the primary anti-ubiquitin antibodies and then with the appropriate biotin-conjugated secondary antibodies, the signals were detected with alkaline phosphatase reaction, using Vectastain ABC-AmP kit (Vector Lab Inc., Burlingame, Calif.).
Next, it was determined whether some of the ubiquitin-immuno-reactive ZP substrates undergo degradation after sperm binding to ZP, and whether such degradation can be prevented by proteasomal inhibitors. […]

[5] = system: bovine ova / bull spermatozoa; experiment: Bovine in vitro fertilization; type: cell-based
Protocol: The effect of proteasomal interference on the ability of bull spermatozoa to fertilize bovine ova was analyzed in vitro. Specific, fully reversible proteasomal inhibitor MG132 (100 μM) was added to fertilization medium at the time of insemination. This allowed fertilization to occur only in 3 out of […] ova examined at 20 h post insemination (2.8% rate of fertilization; Table 2). […] Proteasomes in pronuclei were detected with an antibody against α-type and β-type proteasomal subunits. DNA was visualized with DAPI (blue).
However, several groups of ova were preincubated with 100 μM MG132 for 2 hours prior to fertilization to rule out that MG132 could block or hinder fertilization by a direct effect on zona pellucida oolemma or ooplasm, as opposed to an inhibitory effect on sperm acrosome-borne proteasomes (Sutovsky et al., 2003a, b).

[6] = system: pronuclei of bovine ova; experiment: Pronuclear development in bovine fertilized ova (immunofluorescence); type: cell-based
Protocol: The ubiquitin-proteasome pathway was until recently ascribed solely to cytoplasmic compartment. The presence and proteolytic activity of proteasomes in the nuclear compartment of […] was analyzed. Specific immune sera were used for the immunolocalization of proteasomal subunits LMP2, α/β and MECL1 in bovine pronuclear zygotes at various stages of pronuclear development. […] Proteasomal subunits started to infiltrate both male and female pronuclei at the initial stage of sperm nuclear decondensation. Both the male and the female pronuclei become occupied by proteasomes prior to reaching full size and apposition. High density of proteasomes was observed inside the apposed, full-sized pronuclei in both monospermic and polyspermic ova, and in cases of asynchronous pronuclear development. […] The sperm tail was visualized by the preincubation of spermatozoa prior to fertilization with a vital mitochondrial dye MitoTracker Green FM (green).
Such fertilization in presence of low concentration MG132 allowed the observation of the effects of proteasomal interference on pronuclear development. […] DNA was stained with blue fluorecent DAPI and sperm tails inside the fertilized ova were identified by the presence of green fluorescence, which accumulated in sperm mitochondrial sheath during sperm preincubation with MitoTracker GreenFM. […]

[7] = system: bovine ova / bull spermatozoa; experiment: Bovine in vitro fertilization; type: cell-based; conditions: 10 μM MG132
[8] = system: rat ova; conditions: Josefsberg et al., 2000; cited from earlier work
[9] = 10 μM MG132, 20 hours post insemination
[10] = 100 μM at fertilization, 20 h post insemination
[11] = 100 μM at fertilization, 20 h post insemination, listed as MG 132
[12] = 100 μM ovum preincubation 2 h, IVF in absence of MG132

## CC(C)C[C@@H](C=O)NC(=O)[C@H](CC(C)C)NC(=O)[C@H](CC(C)C)NC(=O)OCc1ccccc1 [MG132, Z-Leu-Leu-Leu-CHO] (Cbz-Leu-Leu-Leu-aldehyde)
[1]; 10 μM MG132, fixed at 20 h p.i.
  fertilization: 0%
[1]
  Monospermic (number of oocytes): 0
  Not fertilized (%): (100%)
  Not fertilized (number of oocytes): 19
  Polyspermic (number of oocytes): 0
  penetration of ZP: completely inhibited
  fertilization of zona-enclosed (zona-intact) oocytes: completely prevented fertilization; also recorded: inhibited in vitro fertilization
[1]; MG132 added at the time of insemination, four trials
  oocytes in which fertilization was prevented: 100%
[1]; oocytes or spermatozoa pre-incubated with MG132, extensive washing before insemination
  fertilization of zona-intact oocytes after pre-incubation: had no effect
[2]; agent present during porcine IVF
  fertilization of zona-free oocytes: had no effect
[2]; in the presence or absence of MG132, most polyspermic
  zona-free oocytes fertilized: 92-96%
[3]; [9]
  gamete viability, sperm-egg binding and sperm-acrosome reaction: does not impair
  spermatozoa with intact acrosomes on an oocyte (FIG. 1C): three
[3]; 10 μM MG132, 20 h p.i.
  number of sperm bound per egg: 99.3
  percentage of acrosome-intact, zona-bound sperm: 2.01%
[3]; ZP+/MG132+ zygotes used for western blotting
  sperm-oocyte binding examined by light microscopy: not affected
[4]
  degradation of ZP-contributed oocyte proteins after IVF: effectively prevented
[5]; 100 μM MG132
  block of bovine fertilization: completely
[5]; 100 μM at fertilization
  M-II/partheno (number of ova): 40
  Partheno (number of ova): 0
[5]; [10]
  Fertilized (%), rate of fertilization: 2.8%
  Fertilized (number of ova): 3
[5]; [11]
  Fertilized (%), rate of fertilization: (2.44%)
  Fertilized (number of ova): 1
[5]; [12]
  Fertilized (%), fertilization rate: 97.5%
  Fertilized (number of ova): 40
  M-II/partheno (number of ova): 1
  Partheno (number of ova): 0
[5]; 100 μM ovum preincubation 2 h, IVF in absence of MG132, listed as MG 132
  Fertilized (%), fertilization rate: (97.56%)
[5]; preincubation of unfertilized ova with 100 μM MG132 for 2 h prior to IVF in absence of MG132
  effect on fertilization or pronuclear development: had no effect on fertilization or pronuclear development
[5]; treatment during bovine IVF
  anomalies in oocyte morphology: Neither MG132 nor anti-MECL1 treatments were accompanied by identifiable anomalies
[6]; fertilized in presence of 10 μM MG132
  pronuclear development in fertilized ova: Abnormal pronuclear development and premature chromosome condensation (PCC) was observed
[6]; preincubation of ova with 100 μM MG132 prior to fertilization
  import of proteasomal subunits into pronuclei: had no effect
[7]
  block of bovine fertilization: inhibited the fertilization only partially
[7]; two separate trials
  average fertilization rate: 38.2%
[8]
  progression of meiosis and pronuclear development: inhibited

## CC(=O)N[C@@H](CSC(=O)[C@]1([C@@H](O)C(C)C)NC(=O)[C@H](C)[C@@H]1O)C(=O)O [lactacystin]
[1]
  Monospermic (%): 65%
  Monospermic (number of oocytes): 13
  Not fertilized (%): (25%)
  Not fertilized (number of oocytes): 5
  Polyspermic (%): 10%
  Polyspermic (number of oocytes): 2
  penetration of ZP: completely inhibited
  fertilization of zona-enclosed (zona-intact) oocytes: completely prevented fertilization
[1]; listed as Lactacystin
  Monospermic (%): (65%)
  Polyspermic (%): (10%)
[1]; 10 uM lactacystin
  fertilization at threshold concentration: did not prevent fertilization
[1]; added at the time of insemination
  effect on fertilization rates: dose-dependent effect
[1]; lactacystin at 100 μm concentration
  block of fertilization: 100%
